Measured values from article PMC3723878 (PLoS ONE, 2013).
Positions count from the first letter of the chain named.

Assays:
Assay in all cases: Saturation binding of ^125I-HEAT
[1] = target: T1, human α1A-AR F312A variant (Homo sapiens, UniProt P35348, F312A)
T1 construct: expressed in transfected cells; host or cells: COS-7 (transient, calcium phosphate), membranes
T1 sequence (P35348 1-466 F312A): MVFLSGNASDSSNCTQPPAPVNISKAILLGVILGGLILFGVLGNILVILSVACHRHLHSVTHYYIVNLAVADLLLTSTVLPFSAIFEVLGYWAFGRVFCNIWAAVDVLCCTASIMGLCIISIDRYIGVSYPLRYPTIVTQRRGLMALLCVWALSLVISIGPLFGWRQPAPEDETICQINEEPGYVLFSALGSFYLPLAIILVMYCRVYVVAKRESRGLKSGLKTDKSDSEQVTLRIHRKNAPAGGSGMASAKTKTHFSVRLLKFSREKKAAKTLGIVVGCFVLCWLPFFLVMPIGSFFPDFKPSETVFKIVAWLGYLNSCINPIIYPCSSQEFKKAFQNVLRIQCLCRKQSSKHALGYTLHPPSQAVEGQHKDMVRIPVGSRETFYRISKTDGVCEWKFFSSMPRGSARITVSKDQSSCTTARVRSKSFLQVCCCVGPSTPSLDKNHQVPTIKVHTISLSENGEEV
Text: (§1) α1A-AR cDNA inserted in the prK5 vector was kindly provided by Michael Brownstein (Craig Venter Institute, Rockville, MD). Point mutations were introduced into the α1A-AR gene by sense and antisense primers (Sigma-Aldrich, St Quentin-Fallavier, France) containing the desired changes, using the QuikChange Site-Directed Mutagenesis kit. The incorporation of each mutation was verified by DNA sequencing.
(§2) CHO cells stably expressing α1-ARs were kindly provided by Dr. Hervé Paris (INSERM U858, Toulouse, France) and were grown in a 50∶50 Dulbecco's Modified Eagle's Medium (DMEM)/Ham's F12 medium supplemented with 10% (v/v) foetal bovine serum (FBS), glutamine (2 mM), penicillin (100 units/ml) and streptomycin (100 µg/ml) at 37°C with 5% CO2. COS-7 cells were grown at 37°C under 5% CO2 in Dulbecco's modified Eagle's medium containing 10% fetal calf serum, 1% penicillin and 1% glutamine (Sigma-Aldrich, St Quentin-Fallavier, France). At 80% confluence, the cells were transfected using a calcium phosphate precipitation method for transient expression of the genetic construct. After 48 h incubation at 37°C, cells were harvested and the membranes were prepared as follow. Cells were washed with ice-cold phosphate buffer and centrifuged at 1700 g for 10 min (4°C). The pellet was suspended in ice-cold buffer (1 mM EDTA, 25 mM sodium phosphate, and 5 mM MgCl2, pH 7.4) and homogenized using an Potter-Elvehjem homogenizer (Fisher Scientific Labosi, Elancourt, France). The homogenate was centrifuged at 1700 g for 15 min (4°C). The sediment was resuspended in buffer, homogenized, and centrifuged at 1700 g for 15 min (4°C). The combined supernatants were centrifuged at 35,000 g for 30 min (4°C), and the pellet was suspended in the same buffer (0.1 ml/dish). […] Cells were grown in a 50∶50 Dulbecco's Modified Eagle's Medium (DMEM)/Ham's F12 medium supplemented with 10% (v/v) foetal bovine serum (FBS), glutamine (2 mM), penicillin (100 units/ml) and streptomycin (100 µg/ml) at 37°C with 5% CO2. Media was changed every 2–3 days and cells were passaged when confluent with 0.05% trypsin and 0.02% EDTA.
(§3) Binding experiments were performed in a 100 µL reaction mix at room temperature in buffer composed of 50 mM Tris-HCl, pH 7.4, 10 mM MgCl2, 1 g/L BSA. Reactions were stopped by filtration through 96 GF/C filter plates pre-incubated with 0.5% polyethylenimine.
(§4) Binding data were analyzed by nonlinear regression using the KaleidaGraph 4.0 software (Synergy software, Reading, PA). pKD values and Bmax (number of binding sites) were determined by applying a nonlinear regression to data obtained with saturation binding assays. The nonlinear regression used was BS = (Bmax*A)/KD+A, where BS is the specific binding, Bmax the number of binding sites, A the concentration of radioligand, and KD the dissociation constant of the radioligand. Data resulting from competition binding assays were analyzed using the Hill equation for IC50 and curve slope estimations. […] The linear curves were analyzed with IC50 = Ki+(L/KD)*Ki. Dissociation kinetics were analyzed using a simple equation of exponential decay BS * exp (-Koff*t), where BS is the specific binding at time zero and Koff is the dissociation rate constant. Results are expressed as mean ± s.e. mean from n independent experiments. One-way Anova test was used to compare values. A p<0.05 was accepted for statistical significance.

human α1A-AR WT = target: T2, human α1A-AR WT (Homo sapiens, UniProt P35348)
T2 construct: expressed in transfected cells; host or cells: COS-7, transient (calcium phosphate)
T2 sequence (P35348 1-466): T1 sequence (P35348 1-466 F312A) with A312F
Text: as §1, §2, §3, §4

[2] = target: T3, human α1A-AR F288A variant (Homo sapiens, UniProt P35348, F288A)
T3 construct: expressed in transfected cells; host or cells: COS-7 (transient, calcium phosphate), membranes
T3 sequence (P35348 1-466 F288A): T1 sequence (P35348 1-466 F312A) with F288A, A312F
Text: as §1, §2, §3, §4

`O=C1c2ccccc2CCC1CNCCc1ccc(O)c([125I])c1` (stereo not drawn) [125I-HEAT] was tested, and the “^125I-HEAT Ratio (loss of affinity relative to WT)” value ([1]; F312A) was 0.44, the “^125I-HEAT pKd” value ([1]; F312A (7.39), saturation binding, n = 3–6) was 10.40±0.10 and the “^125I-HEAT Ratio (affinity relative to WT)” value (human α1A-AR WT) was 1. The “^125I-HEAT pKd” value (human α1A-AR WT; saturation binding, n = 3–6) was 10.05±0.14, the “^125I-HEAT Ratio (loss of affinity relative to WT)” value ([2]; F288A) was 1.3 and the “^125I-HEAT pKd” value ([2]; F288A (6.51), saturation binding, n = 3–6) was 9.92±0.12.
